Assay results: patent publication US5045566A, “Novel imidate insecticides” (ICI Americas Inc., priority 1989, dated 1991)

Columns and labels:
Format in all cases: in vivo
[1] = tested on: Housefly [Musca domestica]; assay: Housefly contact mortality in dishes (HF), 48 hours; details: μg of test compound per 25 female flies
How it was run: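 LC50, as μg compound per 25 female flies, comes from dosage-mortality curves with doses from 100 μg downward. Residues were made by evaporating acetone plus 0.01% peanut oil in dishes, onto which 1-2-day-old females were caged; deaths were counted after 48 hours.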

[2] = tested on: Tobacco Budworm [Heliothis virescens (Fabricius)] larvae; assay: Tobacco budworm larvae, contact (TBW-C), 5 days; details: percent in solution, second-instar larvae
How it was run: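 Cotton cotyledons dipped 2–3 s in compound in 50-50 acetone-water, dried, then infested with 5 second-instar larvae and held 5 days at high humidity. Mortality scored; LC50 from dosage-mortality curves, expressed as percent compound in solution, concentrations from 0.1% downward.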

[3] = tested on: Cabbage Looper [Trichoplusia ni (Hubner)]; assay: Cabbage looper leaf dip (CL), 3-5 days; details: percent in solution, second-instar larvae
How it was run: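 Squash cotyledons dipped in test solution (acetone-water 50-50, ≤0.1%), dried, offered to 5 second-instar larvae; mortality after 3-5 days gives LC50.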

[4] = tested on: Aster Leafhopper [Macrosteles fascifrens (Stal)]; assay: Aster leafhopper on dipped oat seedlings (LH), 48 hours; details: percent in solution, adults/nymphs
How it was run: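 LC50 values, given as percent of test compound in the dip solution, were derived from dosage-mortality curves over concentrations from 0.05% downward. Mortality was counted 48 hours after ten leafhopper adults/nymphs were enclosed on treated seedlings. The seedlings were oats, about 10 cm tall, briefly dipped in 50-50 acetone-water.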

[5] = tested on: Tobacco Budworm [Heliothis virescens (Fabricius)] eggs; assay: Tobacco budworm eggs (TBW-E); details: percent in solution; 2-day old eggs
How it was run: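 Step 1: dip 2-day old egg patches in acetone test solutions (top concentration 0.1%). Step 2: hold in dishes with rearing medium at 78° F. Step 3: record mortality after control hatch and feeding.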

[6] = tested on: Rice water weevil [Lissorhoptrus oryzophilus (Kuschel)]; assay: Rice water weevil topical (RWW), 48 hours; details: μg of test compound per weevil, female adults
Description: The compounds in Tables 1 and 2 above were tested for insecticidal activity using the following testing procedures. LC50 values, based on the results of these tests and calculated according to dosage-mortality curves, are expressed in Table 3.
Rice water weevil [Lissorhoptrus oryzophilus (Kuschel)]:
Test compounds were diluted in acetone. Droplets (1 ul) of test solutions were applied to the ventral abdomens of ten female adult weevils. The treated weevils were placed in containers with wet cotton balls and rice foliage. The containers were covered and kept at a temperature of about 25° C. Mortality was recorded after 48 hours. Test concentrations ranged from […] down to that at which 50% mortality occurred. The LC50 values are expressed below in Table 3 under the heading "RWW" in terms of μg of test compound per weevil.

[7] = tested on: Beet Armyworm (Spodoptera exigua); assay: Beet armyworm leaf dip (BAW), 5 days; details: percent in solution; second-instar larvae; five days
How it was run: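 Five second-instar larvae per dish fed on dried sugar beet leaves previously dipped 2–3 s in acetone-water (1:1) test solutions up to 0.1%. Kept at high humidity, with deaths counted after five days; LC50 as % in solution via dosage-mortality curves.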

[8] = tested on: Black Bean Aphid [Aphis fabae (Scop.)]; assay: Black bean aphid spray test on nasturtium (BBA), 48 hours; details: percent of test compound in sprayed solution
How it was run: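 LC50, given as percent test compound in the sprayed liquid, was calculated from dosage-mortality curves using concentrations from 0.05% downward. Sprays in 50:50 acetone-water went to runoff on ~5 cm nasturtiums carrying 25-50 aphids of mixed ages, one day after infestation. Deaths were counted 48 h later under greenhouse conditions.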

[9] = tested on: Maize weevil [Sitophilus zeamais (Motschulsky)]; assay: Maize weevil on dipped corn seeds (MW), 48 hours; details: percent in solution, adult weevils
How it was run: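 LC50, given as percent of compound in dipping solution, comes from dosage-mortality curves over concentrations descending from 0.01%. Four corn seeds soaked 2-3 s in 50:50 acetone:water solution were dried and held with 10 adult weevils, about 25° C, mortality read after 48 h.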

Row | SMILES | LC50 HF [1] [µg] | LC50 TBW C (contact) [2] [%] | LC50 CL [3] [%] | LC50 LH [4] [%] | LC50 TBW E (eggs) [5] [%] | LC50 RWW [6] [µg] | LC50 BAW [7] [%] | LC50 BBA [8] [%] | LC50 MW [9] [%]
1 | CC(C)C(=Nc1cc(F)cc(F)c1)OCc1cccc(Oc2ccccc2)c1 [Compound 55] | > 100 | 0.004 | 0.0017 | 0.0005 | 0.06 | > 2.5 | 0.006 | 0.003 | 
2 | FC(F)(F)c1cccc(N=C(OCc2cccc(Oc3ccccc3)c2)C(Cl)Cl)c1 [Compound 66, N-(3-Trifluoromethylphenyl)-O-(3-phenoxybenzyl)dichloroacetimidate] | 9.7 |  | < 0.0025 | 0.001 | 0.06 | > 2.5 | 0.0065 | 0.0003 | 
3 | CC(C)C(=Nc1ccc(F)c(Cl)c1)OCc1cccc(Oc2ccccc2)c1 [Compound 81, N-(3-Chloro-4-fluorophenyl)-O-(3-phenoxybenzyl)isobutyrylimidate] | 4 | 0.0009 | 0.0006 | 0.0003 | 0.007 | > 0.5 | 0.003 | 0.001 | 0.005
4 | CC(C)C(=Nc1ccc(F)c(Cl)c1)OCc1ccc(F)c(Oc2ccccc2)c1 [Compound 82] | 2.5 | 0.0008 | 0.00018 | 0.0001 | 0.006 | 0.086 | 0.0025 | 0.00021 | 
5 | CC(C)C(=Nc1ccc2c(c1)OCO2)OCc1ccc(F)c(Oc2ccccc2)c1 [Compound 181] | 25 | 0.001 | 0.0005 |  | 0.01 | > 2.5 | 0.001 |  | 0.005
6 | CC(C)C(=Nc1ccc2c(c1)OC(F)(F)O2)OCc1cccc(Oc2ccc(F)cc2)c1 [Compound 244] | 14 | 0.00025 | 0.00004 |  | > 0.1 | 0.09 | 0.002 | 0.0006 | 0.0025
7 | CC(C)C(=Nc1ccc2c(c1)OC(F)(F)O2)OCc1cccc(Oc2ccccc2)c1 [Compound 245] | 20 | 0.0015 | 0.0035 |  | 0.016 | > 2.5 | 0.001 | 0.0003 | 0.006
8 | CC(C)C(=Nc1ccc(F)c(I)c1)OCc1ccc(F)c(Oc2ccc(F)cc2)c1 [Compound 281] | 5 | 0.00025 | 0.00002 |  | 0.006 | > 2.5 | 0.0027 | 0.0003 | 0.005
9 | CC(C)C(=Nc1ccc2c(c1)OC(F)(F)O2)OCc1ccc(F)c(Oc2ccccc2)c1 [Compound 285] | 36 | 0.00017 | 0.000075 |  | 0.005 | 0.13 | 0.0006 |  | 0.005
10 | CC(C)C(=Nc1ccc(C(F)(F)F)cc1)OCc1ccc(F)c(Oc2ccc(Cl)cc2)c1 [Compound 324] | > 100 | 0.0004 | 0.00014 |  | 0.025 | 0.06 | 0.0024 | 0.0003 | 
11 | CC(C)C(=Nc1ccc(F)cc1)OCc1ccc(F)c(Oc2ccc(Cl)cc2)c1 [Compound 325] | 5 | 0.0006 | 0.00012 |  | 0.037 | > 2.5 | 0.0025 | 0.0001 | 
12 | CC(C)C(=Nc1ccc(F)c(Cl)c1F)OCc1cccc(Oc2ccc(Cl)cc2)c1 [Compound 331] | 20 | 0.0004 | 0.0002 |  | 0.04 | > 2.5 | 0.002 | > 0.05 | 
13 | CC(C)C(=Nc1ccc(F)c(F)c1)OCc1ccc(F)c(Oc2ccccc2)c1 [Compound 336] | 3.6 | 0.0005 | 0.00017 |  | 0.02 | > 2.5 | 0.001 | 0.0003 | 0.0091
14 | CC(C)C(=Nc1ccc(C(F)(F)F)cc1)OCc1ccc(F)c(Oc2ccccc2)c1 [Compound 337] | 21 | 0.0005 | 0.0007 |  | 0.008 | 0.067 | 0.0005 | 0.0003 | 0.0053
15 | CC(C)C(=Nc1ccc(F)c(F)c1F)OCc1ccc(F)c(Oc2ccc(F)cc2)c1 [Compound 349] | 4.9 | 0.0004 | 0.00007 |  | > 0.1 | > 2.5 | > 0.1 | > 0.05 | > 0.01
16 | CC(C)C(=Nc1ccc(F)c(Cl)c1)OCc1cccc(Oc2ccc(F)cc2)n1 [Compound 461] | 6 |  | 0.00008 |  | 0.01 | > 2.5 | 0.0035 | 0.001 | 0.0075
